Series [1] is described as follows: Whole blood stability, mouse. It is filed as in vitro ADME. The text has this:
(§1) The results of the assay on stability in blood and IC50 values for pancreatic cancer cell line KP4 are given below in Table 24.

Series [2] is described as follows: Whole blood stability, human. It counts as in vitro ADME.
Description: as §1

Another series concerns KP4. Description: Cell viability assay (CellTiter Glo), pancreatic ductal adenocarcinoma KP4. To be noted: Homo sapiens, KP-4, 96 h, pancreatic cancer cell line KP4, 96 hours, CellTiter Glo; read-out: IC50 μM KP4. It is filed as cell-based, human. In short, it runs like this: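 Luminescent ATP readout (CellTiter Glo) after 96 h compound exposure, normalized to DMSO-treated cells as maximum. Compounds ran in duplicate, nine 3-fold steps from 30 μM down to 4.6 nM, final DMSO ≤0.25%; KP4 plated overnight at 1,000–10,000 cells/well. Outputs: IC50, relative IC50 or % top inhibition.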
(ATP-based viability assays read luminescence as a measure of living cells.)

Bounds are passed on as bounds.

As to `COC(=O)[C@H]1Cc2c([nH]c3ccccc23)[C@H](c2ccc(S(=O)(=O)N3CCC(O)CC3)cc2)N1C(=O)CCl` [Compound 35], the entries for the “Whole Blood Stability % Remaining at 37° C. Mouse” value in series [1] (0 min), in series [1] (30 min) and in series [1] (60 min) were 100.0%, 32.9% and 14.8%, respectively. In addition, the “Whole Blood Stability % Remaining at 37° C. Human” value in series [2] (0 min) amounted to 100.0%; in series [2] (30 min), 39.3%; in series [2] (60 min), 20.5%. Moreover, the IC50 with KP4 fell in the range of 0.01 to 0.1 µM.

On to `C[C@H]1Cc2c([nH]c3ccccc23)[C@H](c2ccc(S(=O)(=O)N[C@]34CC5C[C@H](C[C@H](C5)C3)C4)cc2)N1C(=O)CCl` [Compound 101], for which the entries for the “Whole Blood Stability % Remaining at 37° C. Mouse” value in series [1] (0 min), in series [1] (30 min) and in series [1] (60 min) were 100.0%, 82.2% and 113.2%, respectively. For the same compound, the “Whole Blood Stability % Remaining at 37° C. Human” value is on record as 100.0% in series [2] (0 min), 46.8% in series [2] (30 min) and 29.8% in series [2] (60 min). The IC50 in the series with KP4 was less than 0.01 µM.

On to `COC(=O)[C@H]1Cc2c([nH]c3ccccc23)[C@H](c2ccc(C(=O)NCCNC(=O)OC(C)(C)C)cc2)N1C(=O)CCl` [Compound 16], for which the “Whole Blood Stability % Remaining at 37° C. Mouse” value is reported as 100.0% in series [1] (0 min), 84.1% in series [1] (30 min) and 63.3% in series [1] (60 min). Besides, the “Whole Blood Stability % Remaining at 37° C. Human” value in series [2] (0 min) stood at 100.0%; in series [2] (30 min) it was 54.3%; in series [2] (60 min), 36.9%. In addition, the IC50 in the series on KP4 is less than 0.01 µM.

On to `COC(=O)[C@H]1Cc2c([nH]c3ccccc23)[C@H](c2ccc(N[C@]34CC5C[C@H](C[C@H](C5)C3)C4)cc2)N1C(=O)CCl` [Compound 29], for which the “Whole Blood Stability % Remaining at 37° C. Mouse” value in series [1] (0 min) was 100.0%; in series [1] (30 min), 61.9%; in series [1] (60 min) it was 51.1%. For the same compound, the results for the “Whole Blood Stability % Remaining at 37° C. Human” value in series [2] (0 min), in series [2] (30 min) and in series [2] (60 min) were 100.0%, 67.3% and 49.2%, respectively. The IC50 in the series with KP4 is less than 0.01 µM.

On to `COC(=O)c1ccc([C@H]2c3[nH]c4ccc(Cl)cc4c3C[C@H](C(=O)OC)N2C(=O)CCl)cc1` [Compound 93], for which the “Whole Blood Stability % Remaining at 37° C. Mouse” value was 100.0% in series [1] (0 min), 0.0% in series [1] (30 min) and 0.0% in series [1] (60 min). In addition, the “Whole Blood Stability % Remaining at 37° C. Human” value in series [2] (0 min) amounted to 100.0%; in series [2] (30 min), 66.3%; in series [2] (60 min) it was 44.9%. Further, the IC50 with KP4 was in the range of 0.1 to 0.5 µM.

Regarding `COC(=O)c1ccc([C@H]2c3sc4ccccc4c3C[C@H](C(=O)OC)N2C(=O)CCl)cc1` [Example 55c], the entries for the “Whole Blood Stability % Remaining at 37° C. Mouse” value in series [1] (0 min), in series [1] (30 min) and in series [1] (60 min) were 100.0%, 0.0% and 0.0%, respectively. For the same compound, the results for the “Whole Blood Stability % Remaining at 37° C. Human” value in series [2] (0 min), in series [2] (30 min) and in series [2] (60 min) were 100.0%, 46.0% and 27.5%, respectively. Also, the IC50 in the series on KP4 was in the range of 0.01 to 0.1 µM.

Take `COC(=O)[C@H]1Cc2c([nH]c3ccccc23)[C@H](c2ccc(S(=O)(=O)NCC3CC3)cc2)N1C(=O)CCl` [Compound 82]: the “Whole Blood Stability % Remaining at 37° C. Mouse” value in series [1] (0 min) worked out at 100.0%; in series [1] (30 min), 43.1%; in series [1] (60 min), 21.7%. The entries for the “Whole Blood Stability % Remaining at 37° C. Human” value in series [2] (0 min), in series [2] (30 min) and in series [2] (60 min) were 100.0%, 47.6% and 34.5%, respectively. The IC50 in the series with KP4 is less than 0.01 µM.

Turning to `CN(C)C(=O)[C@H]1Cc2c([nH]c3ccccc23)[C@H](C2CCN(C(=O)OC(C)(C)C)CC2)N1C(=O)CCl` [Compound 42], the “Whole Blood Stability % Remaining at 37° C. Mouse” value in series [1] (0 min) is 100.0%; in series [1] (30 min), 72.9%; in series [1] (60 min), 62.0%. Moreover, the “Whole Blood Stability % Remaining at 37° C. Human” value in series [2] (0 min) was found to be 100.0%; in series [2] (30 min), 46.2%; in series [2] (60 min), 28.5%. Besides, the IC50 in the series on KP4 is greater than 1 µM.

For `COC(=O)c1ccc([C@H]2c3[nH]c4ccc(F)cc4c3C[C@H](C(=O)OC)N2C(=O)CCl)cc1` [Compound 91], the “Whole Blood Stability % Remaining at 37° C. Mouse” value in series [1] (0 min) came to 100.0%; in series [1] (30 min) it was 0.0%; in series [1] (60 min), 0.0%. The “Whole Blood Stability % Remaining at 37° C. Human” value is 100.0% in series [2] (0 min), 65.8% in series [2] (30 min) and 47.2% in series [2] (60 min). Further, in the series on KP4, the IC50 is less than 0.01 µM.

Regarding `COC(=O)[C@H]1Cc2c([nH]c3ccccc23)[C@H](c2ccc(C(=O)OC(C)(C)C)cc2)N1C(=O)/C=C/CCl` [Compound 25], the “Whole Blood Stability % Remaining at 37° C. Mouse” value in series [1] (0 min) came out at 100.0%; in series [1] (30 min) it was 46.2%; in series [1] (60 min), 24.4%. Moreover, the “Whole Blood Stability % Remaining at 37° C. Human” value in series [2] (0 min) was 100.0%; in series [2] (30 min) it was 55.0%; in series [2] (60 min), 51.9%. In addition, the IC50 in the series on KP4 lay within 0.1 to 0.5 µM.

On to `COC(=O)c1ccc([C@H]2c3[nH]c4ccccc4c3C[C@H](C(=O)OC(C)(C)C)N2C(=O)CCl)cc1` [Compound 2], for which the “Whole Blood Stability % Remaining at 37° C. Mouse” value was 100.0% in series [1] (0 min), 0.1% in series [1] (30 min) and 0.1% in series [1] (60 min). Further, the “Whole Blood Stability % Remaining at 37° C. Human” value in series [2] (0 min) amounted to 100.0%; in series [2] (30 min), 58.5%; in series [2] (60 min), 39.4%. In the series on KP4, the IC50 lay in the range of 0.01 to 0.1 µM.

For `COCCN(C(=O)c1ccc([C@H]2c3[nH]c4ccccc4c3C[C@H](C(=O)N(C)C)N2C(=O)CCl)cc1)C(C)(C)C` [Compound 52], the figures for the “Whole Blood Stability % Remaining at 37° C. Mouse” value in series [1] (0 min), in series [1] (30 min) and in series [1] (60 min) were 100.0%, 79.9% and 52.0%, respectively. In addition, the “Whole Blood Stability % Remaining at 37° C. Human” value in series [2] (0 min) is 100.0%; in series [2] (30 min), 51.8%; in series [2] (60 min), 59.4%. In addition, the IC50 in the series with KP4 fell in the range of 0.01 to 0.1 µM.

With `CN(C)C(=O)[C@H]1Cc2c([nH]c3ccc(Br)cc23)[C@H](c2ccc(C(=O)OC(C)(C)C)cc2)N1C(=O)CCl` [Compound 61], the “Whole Blood Stability % Remaining at 37° C. Mouse” value in series [1] (0 min) stood at 100.0%; in series [1] (30 min) it was 20.5%; in series [1] (60 min), 6.8%. For the same compound, the entries for the “Whole Blood Stability % Remaining at 37° C. Human” value in series [2] (0 min), in series [2] (30 min) and in series [2] (60 min) were 100.0%, 49.2% and 34.0%, respectively. Further, the IC50 in the series on KP4 is less than 0.01 µM.

With `COC(=O)c1ccc([C@H]2c3[nH]c4ccc(OC)cc4c3C[C@H](C)N2C(=O)CCl)cc1` [Compound 113], the “Whole Blood Stability % Remaining at 37° C. Mouse” value worked out at 100.0% in series [1] (0 min), 89.5% in series [1] (30 min) and 2.4% in series [1] (60 min). The “Whole Blood Stability % Remaining at 37° C. Human” value in series [2] (0 min) is given as 100.0%; in series [2] (30 min), 85.1%; in series [2] (60 min), 92.7%. The IC50 in the series with KP4 was less than 0.01 µM.

Regarding `COC(=O)c1ccc([C@H]2c3[nH]c4ccccc4c3C[C@H](C(=O)OC)N2C(=O)CCl)cc1` [K601 (RSL3), reference compound], the “Whole Blood Stability % Remaining at 37° C. Mouse” value in series [1] (0 min) was found to be 100.0%; in series [1] (30 min), 0.2%; in series [1] (60 min), 0.2%. The “Whole Blood Stability % Remaining at 37° C. Human” value was determined as 100.0% in series [2] (0 min), 60.8% in series [2] (30 min) and 42.5% in series [2] (60 min). In addition, the IC50 with KP4 was less than 0.01 µM.

In the case of `CC(C)OC(=O)[C@H]1Cc2c([nH]c3ccccc23)[C@H](c2ccc(C(=O)OC(C)(C)C)cc2)N1C(=O)CCl` [Compound 20], the “Whole Blood Stability % Remaining at 37° C. Mouse” value in series [1] (0 min) is recorded as 100.0%; in series [1] (30 min) it was 39.9%; in series [1] (60 min) it was 19.1%. Further, the “Whole Blood Stability % Remaining at 37° C. Human” value is 100.0% in series [2] (0 min), 50.7% in series [2] (30 min) and 41.6% in series [2] (60 min). The concentration for half-maximal inhibition (IC50) in the series on KP4 was less than 0.01 µM.

Turning to `COC(=O)[C@H]1Cc2c([nH]c3ccccc23)[C@@H](c2ccc(OC(=O)C(C)(C)C)cc2)N1C(=O)CCl` [Compound 13a], the results for the “Whole Blood Stability % Remaining at 37° C. Mouse” value in series [1] (0 min), in series [1] (30 min) and in series [1] (60 min) were 100.0%, 0.0% and 0.0%, respectively. The “Whole Blood Stability % Remaining at 37° C. Human” value in series [2] (0 min) is 100.0%; in series [2] (30 min), 56.6%; in series [2] (60 min), 59.9%. For the same compound, the IC50 with KP4 is 0.5 to 1 µM.

For `CN(C)C(=O)[C@H]1Cc2c([nH]c3ccccc23)[C@H](c2ccc(S(=O)(=O)N3CCC(O)CC3)cc2)N1C(=O)CCl` [Compound 49], the results for the “Whole Blood Stability % Remaining at 37° C. Mouse” value in series [1] (0 min), in series [1] (30 min) and in series [1] (60 min) were 100.0%, 82.5% and 52.5%, respectively. Also, the “Whole Blood Stability % Remaining at 37° C. Human” value stood at 100.0% in series [2] (0 min), 43.0% in series [2] (30 min) and 13.7% in series [2] (60 min). Besides, the IC50 in the series on KP4 was greater than 1 µM.

As a reminder, the IC50 is the concentration that gives 50% inhibition.
